Assay results taken from publication PMC8895377, “In Vivo Targeting Replication Protein A for Cancer Therapy” (Frontiers in Oncology, 2022).

Assays:
H460 cells [1] = assay: Caspase 3/7 apoptosis assay; assay type: cell-based, human; conditions: H460, 24 h
Experimental: Apoptosis induction was determined by activation of Caspases 3 and 7 using the CellEvent™ Caspase-3/7 Green Detection Reagent (Invitrogen). H460 cells were plated at 5 × 10^3 cells/well in black 96-well plates with clear bottoms (Costar) and incubated for 24 h prior to treatments. Cells were treated with the indicated concentration of RPAi or cisplatin for 24 h. The vehicle (DMSO) concentration was held constant at 1% for RPAi treatments. For caspase 3/7 detection, medium was removed and replaced with phosphate buffered saline (PBS) containing 5% fetal bovine serum (FBS) and 2 µM CellEvent™ Caspase-3/7 Green Detection Reagent. Cells were incubated at 37°C/5% CO2 for 1 h, and fluorescence intensity was measured in a BioTek Synergy H1 plate reader (excitation/emission 485/528). Images were captured with an Evos FL2 Auto microscope (Invitrogen) using a 10× objective.
Figure 3 The 329 induction of apoptotic cell death. (A) Analysis of caspase 3/7 activity in H460 cells following 24 h of treatment with 1% DMSO or the indicated concentrations of 329. Fluorescence images were captured as described in the Materials and Methods. (B) Quantification of caspase 3/7 activity. Fluorescence was measured in 96-well plates using a Biotek Synergy H1 plate reader following 24-h incubation with the indicated drugs and concentrations.

[2] = cited from earlier work
[3] = test system: lung cancer xenograft models; conditions: cited from earlier work
H460 cells [4] = assay: DNA fiber analysis of replication fork dynamics; assay type: cell-based, human
Experimental: Analysis of DNA replication intermediates was performed as previously described with minor modifications ([11], [12]). H460 cells were seeded in 6-well plates at a density of 2 × 10^5 cells. […] After harvesting, the cells were resuspended in PBS at a concentration of 1,000,000 cells/ml, and 2 µl of the cell suspension was mixed with 8 µl of lysis buffer (200 mM Tris-HCl pH 7.5, 50 mM EDTA, 0.5% SDS) on a Superfrost Plus microscope slide (Fisher Scientific). After 6 min of incubation, the slides were tilted at a 45-degree angle to allow cell lysates to slowly run down the slide. After air-drying, the slides were fixed in methanol:acetic acid (3:1) and stored at 4°C. DNA fibers were denatured with 2.5N HCl for 1 h, washed with PBS, and blocked with 5% BSA in PBS-T (PBS + 0.1% Tween-20) for 1 h. […] Excess antibodies were removed by washing with PBS-T 3 times. After air-drying, the slides were mounted onto a coverslip with mounting medium. Fiber tracts were imaged with a Nikon epifluorescence microscope using a 40× oil immersion objective, and 100 fibers for each group were analyzed in ImageJ where the ratios of CldU : IdU were compared using pixel length. Data were analyzed by ANOVA with Bonferroni test for multiple comparisons.
(A) Schematic depiction of experimental design. DNA was pulse-labeled with IdU for 20 min. After IdU removal, replication forks were stalled by the addition of HU or left to replicate with vehicle treatment. HU was removed, and replication was labeled with CldU. Following CldU, cells were treated with the DDRi or vehicle. […] Data presented are combined from three individual experiments (100 fibers analyzed per experiment; 300 fibers total). Red bar indicates the median value of CldU/IdU.

H460 cells [5] = assay: Chou-Talalay combination studies with RPAi 329; assay type: cell-based, human; conditions: H460, combination with RPAi 329
Experimental: To assess synergy, the combination index (CI) was determined as described by Chou-Talalay as we have previously described ([8]). Briefly, H460 cells were treated with RPAi and the indicated agent alone and in combination. […] The data from both the single-agent treatments and the combination treatment were used to calculate the CI and plot this value as a function of the fraction of cells affected (Fa). A CI of >1 indicates antagonism between the two agents, while a CI <1 indicates synergy.
(A) Chou-Talalay analysis of combination with chemotherapeutics. […] (B) Chou-Talalay analysis of combination with DDR-targeted agents as described in panel (A).

H460 NSCLC cells = assay: CCK-8 viability assay; assay type: cell-based, human; conditions: H460, 48 h, compared to 551 predecessor
Experimental: Cell lines were obtained from ATCC and maintained as monolayer cultures in RPMI 1640 medium (H460) or Dulbecco’s Modified Eagle's Medium (DMEM) (A549) supplemented with 10% fetal bovine serum. H460 and A549 cells were plated at 2.5 × 10^3 cells/well and A2780 and GCT27 cells plated at 5 × 10^3 cells/well in a 96-well plate and incubated for 18–24 h prior to treatments. Cells were treated with the indicated concentration of RPAi for 48 h. The vehicle (DMSO) concentration was held constant at 1%. Cell metabolism/viability was assessed by a mitochondrial metabolism assay (CCK-8) as we have described previously ([10]). The generation of the water-soluble formazan product by cellular dehydrogenases is proportional to the number of living cells. Following incubation with CCK-8 reagent, absorbance was measured at 450 nm with a BioTek Synergy H1 plate reader. Values were compared to those of vehicle-treated controls to determine percent viability, and the results represent the average and SEM of triplicate determinations.

[6] = design: method as in PMID 32550990; conditions: cited from earlier work
[7] = test system: A549 adenocarcinoma and H460 large cell carcinoma; design: method as in doi:10.1101/2020.11.30.404640; conditions: both models, differing dosing regimens, DMSO/Tween; cited from earlier work
[8] = target: Escherichia coli single strand binding protein (SSB) (Escherichia coli, UniProt P0AGE0); assay: EMSA internal specificity control, SSB–ssDNA complex; conditions: internal specificity control in EMSA
Chain of Escherichia coli single strand binding protein (SSB) (P0AGE0 2-178): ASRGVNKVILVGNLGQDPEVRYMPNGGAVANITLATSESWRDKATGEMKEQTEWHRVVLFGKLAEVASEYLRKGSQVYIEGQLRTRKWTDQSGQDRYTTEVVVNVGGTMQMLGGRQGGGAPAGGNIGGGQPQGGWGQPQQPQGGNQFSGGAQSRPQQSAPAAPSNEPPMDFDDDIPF
Experimental: (§1) EMSAs were performed as previously described ([9]). Briefly, reactions were conducted in 20 mM HEPES (pH 7.8), 1 mM DTT, 0.001% NP-40, and 50 mM NaCl. RPAis were suspended in 100% dimethlysulfoxide (DMSO), and DMSO concentration in the final reaction mixture was constant at less than 5%. Purified full-length RPA (120 ng) was incubated with the indicated RPAi or vehicle in reaction buffer for 30 min before the addition of the [^32]P-labeled 34-base ssDNA probe. Reactions were incubated for 5 min at room temperature, and products were separated via 6% native polyacrylamide gel electrophoresis. The bound and unbound fractions were quantified by phosphor-imager analysis using ImageQuant software (Molecular Dynamics, CA), and data were fit by non-linear regression using GraphPad Prism.
(§2) Figure 2 Replication protein A inhibitor (RPAi) inhibitory activity. (A) Chemical structure of RPAi’s 329 and 2004. (B) EMSA analysis of RPA–DNA interaction inhibition by 329 and 2004. Lanes 3–6 in each panel contain 6.25, 12.5, 25, and 50 µM of the indicated RPAi, respectively. The * indicates the position of the Escherichia coli SSB–single-stranded DNA (ssDNA) complex that serves as an internal specificity control. (C) Cell viability of H460 NSCLC cells in response to 329 and 2004.

[9] = target: T1, RPA–DNA interaction (purified full-length RPA) (Homo sapiens, UniProt P27694); assay: EMSA of RPA–DNA interaction inhibition; assay type: binding; conditions: 6.25, 12.5, 25, 50 µM RPAi
T1 construct: Purified full-length RPA (120 ng) was incubated with the indicated RPAi
T1 sequence (P27694 whole entry): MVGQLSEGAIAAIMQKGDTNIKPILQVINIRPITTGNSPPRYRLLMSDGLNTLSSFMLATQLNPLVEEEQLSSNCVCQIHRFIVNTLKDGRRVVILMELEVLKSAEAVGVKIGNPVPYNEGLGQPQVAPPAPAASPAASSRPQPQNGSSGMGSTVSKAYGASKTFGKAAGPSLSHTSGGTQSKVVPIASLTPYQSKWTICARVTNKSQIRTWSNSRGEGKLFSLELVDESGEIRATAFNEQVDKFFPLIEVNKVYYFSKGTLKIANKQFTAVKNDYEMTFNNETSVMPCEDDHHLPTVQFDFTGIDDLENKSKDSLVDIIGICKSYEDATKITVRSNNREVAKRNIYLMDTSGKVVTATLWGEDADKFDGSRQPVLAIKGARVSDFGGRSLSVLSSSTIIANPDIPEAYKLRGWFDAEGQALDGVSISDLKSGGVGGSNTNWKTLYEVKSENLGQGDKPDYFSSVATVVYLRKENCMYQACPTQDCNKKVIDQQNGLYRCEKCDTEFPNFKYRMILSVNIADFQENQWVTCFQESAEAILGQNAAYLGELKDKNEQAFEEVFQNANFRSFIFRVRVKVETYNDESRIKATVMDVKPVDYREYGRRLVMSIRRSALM
T1 sequence (P15927 whole entry partner): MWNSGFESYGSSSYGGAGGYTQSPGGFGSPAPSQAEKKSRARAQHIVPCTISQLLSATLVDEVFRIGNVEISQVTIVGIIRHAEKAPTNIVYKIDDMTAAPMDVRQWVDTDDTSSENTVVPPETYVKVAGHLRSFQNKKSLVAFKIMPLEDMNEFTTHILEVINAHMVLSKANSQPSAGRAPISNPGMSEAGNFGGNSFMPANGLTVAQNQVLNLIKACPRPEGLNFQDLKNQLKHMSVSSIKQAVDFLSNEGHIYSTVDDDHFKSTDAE
T1 sequence (P35244 whole entry partner): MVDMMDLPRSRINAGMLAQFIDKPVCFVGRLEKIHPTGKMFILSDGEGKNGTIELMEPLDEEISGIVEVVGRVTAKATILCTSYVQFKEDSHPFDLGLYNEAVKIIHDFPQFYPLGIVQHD
Experimental: as §1, §2

CCOc1ccc2cc(C3CC(c4ccc(I)cc4)=NN3C(=O)CCCC(=O)O)c(Cl)nc2c1 (centres unmarked) [compound 551]
activation of caspases 3 and 7 (H460 cells [1]): inability to detect caspase activity | caspase activation or annexin V/PI positivity [2]: not accompanied by caspase activation or annexin V/PI positivity | tumor growth delay, combination with carboplatin ([3]; NSCLC xenograft models, reduced doses of carboplatin and 551, versus each agent alone): greater than additive effect on tumor growth delay | in vivo activity [3]: modest in vivo activity

N=C1NC(=O)/C(=C/c2ccc(O)cc2)S1 [mirin]
reversal of the CldU/IdU decrease (H460 cells [4]; H460, HU then ATRi or RPAi): reversible

CNCc1ccc(-c2cc(-c3nc(-c4ccc(S(=O)(=O)C(C)C)cc4)cnc3N)on2)cc1 [VE-822]
CldU/IdU signal after HU (H460 cells [4]; H460, HU 2.5 mM then 329 50 µM or VE-822 2 µM): significant decrease in CldU/IdU signal | CldU/IdU, inhibitor alone (H460 cells [4]; H460, without HU, 329 50 µM, VE-822 2 µM, 2 h): minimal effects

Cn1ncnc1[C@H]1c2n[nH]c(=O)c3cc(F)cc(c23)N[C@@H]1c1ccc(F)cc1 [BMN637]
synergy with RPAi 329 (Chou-Talalay) (H460 cells [5]): modest synergy

O=C1NC(=O)c2c1c(-c1ccccc1Cl)cc1[nH]c3ccc(O)cc3c21 [Wee1 inhibitor]
synergy with RPAi 329 (Chou-Talalay) (H460 cells [5]): antagonistic or additive

CCOc1ccc2cc(C3CC(c4ccc(Br)cc4)=NN3C(=O)CCCC(=O)NCCCN3CCOCC3)c(Cl)nc2c1 (centres unmarked) [compound 2004]
single-agent cellular anticancer activity (CCK-8) (H460 NSCLC cells): potent single-agent activity | solubility, cellular uptake, and physicochemical properties [6]: excellent | single-agent anticancer activity in vivo [7]: only modest single-agent anticancer activity | interaction of E. coli SSB with ssDNA [8]: not impacted | RPA inhibitory activity (RPA–DNA interaction, EMSA) [9]: potent RPA inhibitory activity
